One compound from patent US8821862B2, “Soluble β-N-acetylglucosaminidase based antibiofilm compositions and uses thereof” (Kane Biotech Inc., priority 2002, dated 2014) can be followed below.

Usually MIC stands for the lowest concentration found to suppress growth.

Test [1] concerns S. epidermidis. Nature of the test: Adhesion assay with coated silicone catheter segments. Type of test: cell-based, Staphylococcus epidermidis. The following applies: silicone catheter coated with TCSN 10 mg/ml alone versus DispersinB 40 μg/ml alone. How it is done: (§1) The adhesion assay was performed to determine the synergistic effect of DispersinB™ and TCSN combination coated silicone catheters on S. epidermidis and E. coli colonization. The silicone catheter segments (1 cm each) were coated by dipping in DispersinB™ (40 μg/ml) and TCSN (10 mg/ml in 10% Polyethylene glycol) alone and in combination for overnight at 4° C. followed by drying at room temperature. The coated and uncoated segments were incubated in S. epidermidis and E. coli culture in TSB medium at 37° C. for 24 hours at 100 rpm. After 24 hours of incubation, the sections were washed three times gently. Each washed section was transferred into a sterile tube containing 1 ml sterile saline and subjected to sonication for 30 seconds and followed by 1 minute vortexing. Further, it was serially diluted using sterile saline and plated using Tryptic Soy Agar (TSA) plates. The plates were incubated at 37° C. for 24 hours and the colonies (CFU) were counted.

The test system of test [2] is E. coli. Described as above. Format: cell-based, Escherichia coli. The following applies: silicone catheter coated with TCSN 10 mg/ml alone versus DispersinB 40 μg/ml alone. On the procedure: as §1
The subject of test [3] is Coagulase-negative staphylococci (CNS 11). Kind of test: MIC, clinical isolates of wound-associated pathogens. Format: cell-based. The following applies: triclosan in the presence of DispersinB 40 μg/ml; clinical isolate CNS 11. On the procedure: (§2) The combined antimicrobial activity of DispersinB™ and triclosan was studied by determining minimal inhibitory concentrations (MIC) in a 96 well microtiter plate. Briefly, serial two-fold dilutions of triclosan and in presence of DispersinB™ (40 μg/ml) were performed in TSB. A suspension of each microorganism from Table 1 was added to wells at a concentration of 5×10^5 CFU/mL, and the microtiter plates were incubated at 37° C. The MIC was defined, as the lowest concentration of an antimicrobial required for total inhibition of a test microorganism at 37° C. Triclosan in combination with DispersinB™ was active against all the pathogens tested.
(§3) The antimicrobial activity of DispersinB™ and triclosan combination was studied by determining the minimal inhibitory concentrations (MIC) in 96 well microtiter plates as described in Example 4. Triclosan in combination with DispersinB™ was active against all the pathogens tested (Table 2).

In a further test the test system is S. aureus 120. Described as above. Type of test: cell-based. The following applies: Staphylococcus aureus; triclosan in the presence of DispersinB 40 μg/ml; clinical isolate S. aureus 120. On the procedure: as §2, §3
The test system of another test is S. aureus 68. Described as above. Type of test: cell-based. The following applies: Staphylococcus aureus; triclosan in the presence of DispersinB 40 μg/ml; clinical isolate S. aureus 68. How it is done:
as §2, §3

The next test relates to S. aureus Gav 16A. The test is described as above. Type of test: cell-based. The following applies: Staphylococcus aureus, GAV16A; triclosan in the presence of DispersinB 40 μg/ml; clinical isolate S. aureus Gav 16A. On the procedure:
as §2, §3

For a further test, the system named is P. mirabilis. Nature of the test: MIC in 96 well microtiter plate. Format: cell-based. Conditions: Proteus mirabilis, triclosan in the presence of DispersinB 40 μg/ml, 37° C. On the procedure:
as §2

The test system of a further test is K. pneumoniae. Kind of test: MIC in 96 well microtiter plate. Type of test: cell-based. Conditions: Klebsiella pneumoniae, triclosan in the presence of DispersinB 40 μg/ml, 37° C. How it is done: as §2
The test system of test [4] is S. epidermidis. Nature of the test: MIC in 96 well microtiter plate. Type of test: cell-based. Conditions: Staphylococcus epidermidis, triclosan in the presence of DispersinB 40 μg/ml, 37° C. On the procedure: as §2
The next test concerns S. aureus. Nature of the test: MIC in 96 well microtiter plate. Format: cell-based. Conditions: Staphylococcus aureus, triclosan in the presence of DispersinB 40 μg/ml, 37° C. How it is done:
as §2

Test [5] deals with E. coli. Nature of the test: MIC in 96 well microtiter plate. The following applies: Escherichia coli, triclosan in the presence of DispersinB 40 μg/ml, 37° C. Type of test: cell-based. On the procedure:
as §2

For another test, the system named is E. faecalis. Kind of test: MIC in 96 well microtiter plate. Type of test: cell-based. The following applies: Enterococcus faecalis, triclosan in the presence of DispersinB 40 μg/ml, 37° C. How it is done: as §2
In another test the test system is E. faecium. Nature of the test: MIC in 96 well microtiter plate. Format: cell-based. Conditions: Enterococcus faecium, triclosan in the presence of DispersinB 40 μg/ml, 37° C. How it is done: as §2
For another test, the system named is C. albicans. Kind of test: MIC in 96 well microtiter plate. Type of test: cell-based. The following applies: Candida albicans, triclosan in the presence of DispersinB 40 μg/ml, 37° C. On the procedure: as §2
The next test concerns Enterobacter cloacae. Kind of test: MIC in 96 well microtiter plate. The following applies: triclosan in the presence of DispersinB 40 μg/ml, 37° C. Format: cell-based. On the procedure: as §2
A further test has as its system CNS 42. Nature of the test: MIC, clinical isolates of wound-associated pathogens. The following applies: triclosan in the presence of DispersinB 40 μg/ml; clinical isolate CNS 42. Format: cell-based, Coagulase-negative staphylococci. How it is done:
as §2, §3

Another test relates to CNS 82. The description is as above. Format: cell-based, Coagulase-negative staphylococci. The following applies: triclosan in the presence of DispersinB 40 μg/ml; clinical isolate CNS 82. On the procedure:
as §2, §3

As for `Oc1cc(Cl)ccc1Oc1ccc(Cl)cc1Cl` [triclosan], the “inhibiting the growth of biofilm-embedded S. epidermidis, coating alone” value in the test with S. epidermidis [1] is listed as “more effective than DispersinB™”. Moreover, the “inhibiting the growth of biofilm-embedded E. coli, coating alone” value with E. coli [2] is on record as “more effective than DispersinB™”. The MIC in [3] is 25 µg/mL; in the test on S. aureus 120, less than 0.39 µg/mL; in the test with S. aureus 68, less than 0.39 µg/mL; in the test with S. aureus Gav 16A, less than 0.39 µg/mL; in the test on P. mirabilis, 12.5 µg/mL; in the test on K. pneumoniae, 25 µg/mL. Further, the MIC is 3.12 µg/mL in the test with S. epidermidis [4]; less than 0.097 µg/mL with S. aureus; 6.25 µg/mL in the test on E. coli [5]; 100 µg/mL in the test with E. faecalis; 12.5 µg/mL in the test on E. faecium; 100 µg/mL in the test with C. albicans. For the same compound, the MIC in the test with Enterobacter cloacae was 25 µg/mL; in the test with CNS 42, 0.625 µg/mL; in the test on CNS 82, less than 0.39 µg/mL.
